Assay [1] deals with T1, Polyamine deacetylase HDAC10 (Homo sapiens, UniProt Q969S8).
T1 sequence (Q969S8 whole entry): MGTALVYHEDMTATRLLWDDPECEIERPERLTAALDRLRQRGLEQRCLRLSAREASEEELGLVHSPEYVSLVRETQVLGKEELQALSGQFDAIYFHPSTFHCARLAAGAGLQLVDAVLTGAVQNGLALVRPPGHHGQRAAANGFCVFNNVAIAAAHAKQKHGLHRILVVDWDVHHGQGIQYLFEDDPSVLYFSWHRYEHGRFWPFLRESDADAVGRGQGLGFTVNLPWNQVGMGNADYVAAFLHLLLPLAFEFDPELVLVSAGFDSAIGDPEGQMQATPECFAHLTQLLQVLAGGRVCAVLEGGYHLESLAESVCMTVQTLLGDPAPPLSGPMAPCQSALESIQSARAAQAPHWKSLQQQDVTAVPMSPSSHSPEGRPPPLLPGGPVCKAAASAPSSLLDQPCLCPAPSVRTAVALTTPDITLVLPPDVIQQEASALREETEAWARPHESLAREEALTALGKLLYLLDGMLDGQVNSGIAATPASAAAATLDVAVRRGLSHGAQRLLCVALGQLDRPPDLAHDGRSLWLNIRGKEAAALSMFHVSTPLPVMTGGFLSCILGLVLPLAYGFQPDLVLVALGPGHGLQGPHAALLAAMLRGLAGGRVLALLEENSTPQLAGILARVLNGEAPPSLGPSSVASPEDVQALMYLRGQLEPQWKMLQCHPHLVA
Kind of assay: Inhibition of HDAC10 (unknown origin).

Assay [2] addresses T2, Histone deacetylase 11 (Homo sapiens, UniProt Q96DB2).
T2 sequence (Q96DB2 whole entry): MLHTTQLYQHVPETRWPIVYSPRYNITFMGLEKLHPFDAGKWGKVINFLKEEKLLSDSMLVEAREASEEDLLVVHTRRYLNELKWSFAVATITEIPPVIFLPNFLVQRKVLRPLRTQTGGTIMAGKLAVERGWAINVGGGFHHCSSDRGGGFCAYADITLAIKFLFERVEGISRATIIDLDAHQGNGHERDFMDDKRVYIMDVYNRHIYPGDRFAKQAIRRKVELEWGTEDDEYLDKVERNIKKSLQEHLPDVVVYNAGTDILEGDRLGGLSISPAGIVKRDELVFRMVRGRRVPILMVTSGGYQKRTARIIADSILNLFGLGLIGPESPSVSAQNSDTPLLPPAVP
The assay is described as follows: Inhibition of HDAC11 (unknown origin).

The target of assay [3] is Histone deacetylase 9 (Homo sapiens, UniProt Q9UKV0). Kind of assay: Inhibition of C-terminal His-tagged human HDAC9 (604 to 1066 residues) expressed in baculovirus infected sf9 cells using acetyl-lysine tripeptide as substrate preincubated for 10 mins followed by substrate addition and shaken for 5 secs and measured over 30 mins.
Assay [4] concerns the target Histone deacetylase 5 (Homo sapiens, UniProt Q9UQL6). Kind of assay: Inhibition of human HDAC5 using acetyl-lysine tripeptide as substrate preincubated for 10 mins followed by substrate addition and shaken for 5 secs and measured over 30 mins.
Assay [5] deals with Histone deacetylase 2 (Homo sapiens, UniProt Q92769). Kind of assay: Inhibition of human HDAC2 expressed in Sf9 cells using acetyl-lysine tripeptide as substrate preincubated for 10 mins followed by substrate addition and shaken for 5 secs and measured over 30 mins.
Assay [6] deals with T3, Histone deacetylase 8 (Homo sapiens, UniProt Q9BY41).
T3 sequence (Q9BY41 whole entry): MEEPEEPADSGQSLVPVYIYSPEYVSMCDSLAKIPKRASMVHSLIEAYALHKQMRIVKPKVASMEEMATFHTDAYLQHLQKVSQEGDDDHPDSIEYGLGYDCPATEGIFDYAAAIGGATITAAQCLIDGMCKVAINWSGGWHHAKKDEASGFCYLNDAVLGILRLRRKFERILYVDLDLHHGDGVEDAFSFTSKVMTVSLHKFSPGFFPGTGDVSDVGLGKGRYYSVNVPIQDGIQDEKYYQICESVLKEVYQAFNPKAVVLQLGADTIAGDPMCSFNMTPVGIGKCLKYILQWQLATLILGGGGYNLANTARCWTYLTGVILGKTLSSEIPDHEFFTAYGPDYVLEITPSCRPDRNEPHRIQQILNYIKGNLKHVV
Kind of assay: Inhibition of recombinant human C-terminal His-tagged HDAC8 expressed in baculovirus infected sf9 cells using acetyl-lysine tripeptide as substrate preincubated for 10 mins followed by substrate addition and shaken for 5 secs and measured over 30 mins.

In assay [7] the target is T4, Histone deacetylase 7 (Homo sapiens, UniProt Q8WUI4).
T4 sequence (Q8WUI4 whole entry): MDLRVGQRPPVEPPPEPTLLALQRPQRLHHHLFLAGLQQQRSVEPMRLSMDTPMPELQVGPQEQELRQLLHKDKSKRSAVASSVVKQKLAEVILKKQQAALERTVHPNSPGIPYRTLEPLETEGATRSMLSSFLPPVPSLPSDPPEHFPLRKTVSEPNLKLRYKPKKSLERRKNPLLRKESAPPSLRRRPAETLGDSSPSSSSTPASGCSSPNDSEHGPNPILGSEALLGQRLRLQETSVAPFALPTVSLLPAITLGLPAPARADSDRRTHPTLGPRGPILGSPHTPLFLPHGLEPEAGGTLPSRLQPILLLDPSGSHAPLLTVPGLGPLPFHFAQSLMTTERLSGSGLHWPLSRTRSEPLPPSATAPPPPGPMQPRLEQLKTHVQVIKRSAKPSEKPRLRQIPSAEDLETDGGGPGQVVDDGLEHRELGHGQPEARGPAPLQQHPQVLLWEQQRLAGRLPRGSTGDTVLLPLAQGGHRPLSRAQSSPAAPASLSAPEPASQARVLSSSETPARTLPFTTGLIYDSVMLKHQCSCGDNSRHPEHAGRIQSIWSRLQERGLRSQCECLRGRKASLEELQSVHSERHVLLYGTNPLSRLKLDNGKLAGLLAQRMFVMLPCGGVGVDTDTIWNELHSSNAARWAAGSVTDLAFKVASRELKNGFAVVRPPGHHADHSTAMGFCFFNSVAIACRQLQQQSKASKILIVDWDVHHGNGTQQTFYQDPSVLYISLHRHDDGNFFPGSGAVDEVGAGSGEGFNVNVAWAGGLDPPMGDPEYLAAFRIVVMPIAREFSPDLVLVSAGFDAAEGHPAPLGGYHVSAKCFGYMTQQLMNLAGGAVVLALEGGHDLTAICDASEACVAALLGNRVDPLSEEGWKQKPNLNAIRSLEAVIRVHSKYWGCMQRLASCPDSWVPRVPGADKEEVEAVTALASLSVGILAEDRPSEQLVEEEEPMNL
Kind of assay: Inhibition of human N-terminal GST-tagged HDAC7 (518 to end residues) expressed in baculovirus infected sf9 cells using acetyl-lysine tripeptide as substrate preincubated for 10 mins followed by substrate addition and shaken for 5 secs and measured over 30 mins.

The target in assay [8] is Histone deacetylase 4 (Homo sapiens, UniProt P56524). The assay is described as follows: Inhibition of human HDAC4 expressed in baculovirus infected sf9 cells using acetyl-lysine tripeptide as substrate preincubated for 10 mins followed by substrate addition and shaken for 5 secs and measured over 30 mins.
Assay [9] concerns the target Histone deacetylase 3/Nuclear receptor corepressor 2 (HDAC3/NCoR2) (Homo sapiens, UniProt O15379). The assay is described as follows: Inhibition of His-tagged GST-fused human HDAC3/NcoR2 expressed in sf9 cells using acetyl-lysine tripeptide as substrate preincubated for 10 mins followed by substrate addition and shaken for 5 secs and measured over 30 mins.
In assay [10] the target is T5, Protein deacetylase HDAC6 (Homo sapiens, UniProt Q9UBN7).
T5 sequence (Q9UBN7 whole entry): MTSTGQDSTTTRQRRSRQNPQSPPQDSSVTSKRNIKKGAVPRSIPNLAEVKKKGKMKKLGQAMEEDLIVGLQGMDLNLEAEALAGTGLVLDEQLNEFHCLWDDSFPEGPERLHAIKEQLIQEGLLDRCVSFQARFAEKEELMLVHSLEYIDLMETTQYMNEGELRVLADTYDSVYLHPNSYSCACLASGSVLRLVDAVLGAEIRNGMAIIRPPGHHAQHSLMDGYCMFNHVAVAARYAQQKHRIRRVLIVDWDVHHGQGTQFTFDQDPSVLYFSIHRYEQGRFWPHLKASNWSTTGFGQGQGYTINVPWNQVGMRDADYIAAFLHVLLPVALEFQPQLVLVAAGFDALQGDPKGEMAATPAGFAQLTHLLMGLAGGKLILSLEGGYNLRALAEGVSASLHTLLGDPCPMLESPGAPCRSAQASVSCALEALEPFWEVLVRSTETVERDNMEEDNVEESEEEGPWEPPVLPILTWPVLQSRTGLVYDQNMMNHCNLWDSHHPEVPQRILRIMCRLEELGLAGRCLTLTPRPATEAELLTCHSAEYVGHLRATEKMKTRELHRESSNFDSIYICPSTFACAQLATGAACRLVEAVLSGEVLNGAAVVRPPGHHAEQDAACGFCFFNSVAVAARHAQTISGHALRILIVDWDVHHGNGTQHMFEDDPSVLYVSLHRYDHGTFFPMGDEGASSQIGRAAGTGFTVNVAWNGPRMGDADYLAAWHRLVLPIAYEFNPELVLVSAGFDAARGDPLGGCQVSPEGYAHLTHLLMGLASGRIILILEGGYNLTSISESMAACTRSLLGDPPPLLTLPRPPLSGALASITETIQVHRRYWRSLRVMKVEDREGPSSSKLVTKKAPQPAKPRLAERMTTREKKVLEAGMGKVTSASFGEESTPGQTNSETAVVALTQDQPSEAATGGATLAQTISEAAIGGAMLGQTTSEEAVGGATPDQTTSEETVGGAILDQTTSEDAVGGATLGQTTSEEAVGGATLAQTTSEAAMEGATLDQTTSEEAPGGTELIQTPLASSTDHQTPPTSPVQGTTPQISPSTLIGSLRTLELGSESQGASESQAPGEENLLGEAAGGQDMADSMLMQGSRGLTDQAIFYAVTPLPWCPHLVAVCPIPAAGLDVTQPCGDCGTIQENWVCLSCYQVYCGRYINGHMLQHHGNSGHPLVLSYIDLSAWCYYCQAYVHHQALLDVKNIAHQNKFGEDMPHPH
The assay is described as follows: Inhibition of HDAC6 (unknown origin) using acetyl-lysine tripeptide as substrate preincubated for 10 mins followed by substrate addition and shaken for 5 secs and measured over 30 mins.

Assay [11] has as its target T6, Polyamine deacetylase HDAC10 (Danio rerio, UniProt F1QCV2).
T6 sequence (F1QCV2 whole entry): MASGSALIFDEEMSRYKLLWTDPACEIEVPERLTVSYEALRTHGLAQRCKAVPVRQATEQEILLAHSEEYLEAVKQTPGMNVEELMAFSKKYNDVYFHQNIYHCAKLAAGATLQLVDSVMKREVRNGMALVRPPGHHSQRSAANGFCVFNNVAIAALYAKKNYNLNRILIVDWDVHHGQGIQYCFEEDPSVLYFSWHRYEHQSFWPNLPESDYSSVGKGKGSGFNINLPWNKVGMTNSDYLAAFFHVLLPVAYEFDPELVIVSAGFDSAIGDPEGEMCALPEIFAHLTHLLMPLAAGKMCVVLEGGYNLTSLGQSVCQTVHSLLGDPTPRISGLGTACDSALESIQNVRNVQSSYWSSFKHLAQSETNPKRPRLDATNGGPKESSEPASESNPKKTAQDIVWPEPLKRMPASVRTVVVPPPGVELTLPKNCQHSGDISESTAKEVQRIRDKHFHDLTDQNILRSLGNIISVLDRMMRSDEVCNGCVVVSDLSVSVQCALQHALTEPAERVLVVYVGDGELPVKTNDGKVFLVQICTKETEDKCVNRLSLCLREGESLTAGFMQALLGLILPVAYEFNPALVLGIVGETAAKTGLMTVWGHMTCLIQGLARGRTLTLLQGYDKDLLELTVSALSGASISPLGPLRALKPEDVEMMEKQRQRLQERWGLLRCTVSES
Kind of assay: Inhibition of zebrafish HDAC10 (2 to 675 residues) expressed in Escherichia coli BL21(DE3) cells using N-acetylputrescine as substrate preincubated for 10 mins followed by substrate and measured after 45 to 60 mins by liquid chromatography-mass spectrometry.

Each structure is given as a SMILES string. pIC50: −log10 of the molar value.

Chain of Histone deacetylase 5 (Q9UQL6 whole entry): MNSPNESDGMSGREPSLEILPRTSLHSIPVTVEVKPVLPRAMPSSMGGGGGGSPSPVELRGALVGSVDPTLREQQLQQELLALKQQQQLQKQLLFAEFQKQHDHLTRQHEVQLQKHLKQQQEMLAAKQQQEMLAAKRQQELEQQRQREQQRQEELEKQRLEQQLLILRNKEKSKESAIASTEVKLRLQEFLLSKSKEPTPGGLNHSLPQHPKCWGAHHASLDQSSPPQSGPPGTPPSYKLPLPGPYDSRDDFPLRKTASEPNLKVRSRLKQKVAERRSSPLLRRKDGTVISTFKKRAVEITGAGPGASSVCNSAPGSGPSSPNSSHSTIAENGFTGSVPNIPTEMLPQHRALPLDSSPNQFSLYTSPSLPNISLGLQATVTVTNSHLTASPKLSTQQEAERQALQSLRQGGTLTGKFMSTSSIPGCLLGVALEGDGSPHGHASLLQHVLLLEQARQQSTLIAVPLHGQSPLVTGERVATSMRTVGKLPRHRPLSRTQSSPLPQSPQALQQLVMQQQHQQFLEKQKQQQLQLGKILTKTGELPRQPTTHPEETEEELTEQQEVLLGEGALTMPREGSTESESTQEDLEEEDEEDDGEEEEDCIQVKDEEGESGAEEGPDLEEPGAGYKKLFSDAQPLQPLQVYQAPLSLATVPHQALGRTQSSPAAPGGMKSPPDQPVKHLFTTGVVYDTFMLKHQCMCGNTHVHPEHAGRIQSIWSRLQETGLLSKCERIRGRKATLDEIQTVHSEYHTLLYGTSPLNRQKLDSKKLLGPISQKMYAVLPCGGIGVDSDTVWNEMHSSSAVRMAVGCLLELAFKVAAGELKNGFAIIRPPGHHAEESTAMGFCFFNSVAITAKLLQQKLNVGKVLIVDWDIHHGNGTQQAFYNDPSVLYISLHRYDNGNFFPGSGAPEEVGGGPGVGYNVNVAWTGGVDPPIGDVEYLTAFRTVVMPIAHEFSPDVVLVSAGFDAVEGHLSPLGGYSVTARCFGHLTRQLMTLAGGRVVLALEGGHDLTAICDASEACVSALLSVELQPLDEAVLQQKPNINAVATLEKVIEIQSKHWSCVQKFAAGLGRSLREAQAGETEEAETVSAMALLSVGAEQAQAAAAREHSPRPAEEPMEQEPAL
Chain of Histone deacetylase 3/Nuclear receptor corepressor 2 (HDAC3/NCoR2) (O15379 whole entry, the tested form may be a part): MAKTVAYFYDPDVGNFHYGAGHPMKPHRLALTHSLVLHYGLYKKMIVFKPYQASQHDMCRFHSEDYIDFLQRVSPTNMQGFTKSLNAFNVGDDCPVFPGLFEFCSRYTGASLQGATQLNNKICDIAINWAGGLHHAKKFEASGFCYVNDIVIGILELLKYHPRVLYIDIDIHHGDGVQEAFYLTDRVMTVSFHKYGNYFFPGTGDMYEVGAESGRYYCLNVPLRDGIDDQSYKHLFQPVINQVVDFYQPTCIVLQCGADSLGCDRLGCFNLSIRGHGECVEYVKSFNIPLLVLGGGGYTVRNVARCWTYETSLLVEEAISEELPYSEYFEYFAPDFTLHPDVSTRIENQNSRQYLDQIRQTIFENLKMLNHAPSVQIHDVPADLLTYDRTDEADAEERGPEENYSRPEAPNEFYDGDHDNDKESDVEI
Chain of Histone deacetylase 3/Nuclear receptor corepressor 2 (HDAC3/NCoR2) (Q9Y618 whole entry, further chain, the tested form may be a part): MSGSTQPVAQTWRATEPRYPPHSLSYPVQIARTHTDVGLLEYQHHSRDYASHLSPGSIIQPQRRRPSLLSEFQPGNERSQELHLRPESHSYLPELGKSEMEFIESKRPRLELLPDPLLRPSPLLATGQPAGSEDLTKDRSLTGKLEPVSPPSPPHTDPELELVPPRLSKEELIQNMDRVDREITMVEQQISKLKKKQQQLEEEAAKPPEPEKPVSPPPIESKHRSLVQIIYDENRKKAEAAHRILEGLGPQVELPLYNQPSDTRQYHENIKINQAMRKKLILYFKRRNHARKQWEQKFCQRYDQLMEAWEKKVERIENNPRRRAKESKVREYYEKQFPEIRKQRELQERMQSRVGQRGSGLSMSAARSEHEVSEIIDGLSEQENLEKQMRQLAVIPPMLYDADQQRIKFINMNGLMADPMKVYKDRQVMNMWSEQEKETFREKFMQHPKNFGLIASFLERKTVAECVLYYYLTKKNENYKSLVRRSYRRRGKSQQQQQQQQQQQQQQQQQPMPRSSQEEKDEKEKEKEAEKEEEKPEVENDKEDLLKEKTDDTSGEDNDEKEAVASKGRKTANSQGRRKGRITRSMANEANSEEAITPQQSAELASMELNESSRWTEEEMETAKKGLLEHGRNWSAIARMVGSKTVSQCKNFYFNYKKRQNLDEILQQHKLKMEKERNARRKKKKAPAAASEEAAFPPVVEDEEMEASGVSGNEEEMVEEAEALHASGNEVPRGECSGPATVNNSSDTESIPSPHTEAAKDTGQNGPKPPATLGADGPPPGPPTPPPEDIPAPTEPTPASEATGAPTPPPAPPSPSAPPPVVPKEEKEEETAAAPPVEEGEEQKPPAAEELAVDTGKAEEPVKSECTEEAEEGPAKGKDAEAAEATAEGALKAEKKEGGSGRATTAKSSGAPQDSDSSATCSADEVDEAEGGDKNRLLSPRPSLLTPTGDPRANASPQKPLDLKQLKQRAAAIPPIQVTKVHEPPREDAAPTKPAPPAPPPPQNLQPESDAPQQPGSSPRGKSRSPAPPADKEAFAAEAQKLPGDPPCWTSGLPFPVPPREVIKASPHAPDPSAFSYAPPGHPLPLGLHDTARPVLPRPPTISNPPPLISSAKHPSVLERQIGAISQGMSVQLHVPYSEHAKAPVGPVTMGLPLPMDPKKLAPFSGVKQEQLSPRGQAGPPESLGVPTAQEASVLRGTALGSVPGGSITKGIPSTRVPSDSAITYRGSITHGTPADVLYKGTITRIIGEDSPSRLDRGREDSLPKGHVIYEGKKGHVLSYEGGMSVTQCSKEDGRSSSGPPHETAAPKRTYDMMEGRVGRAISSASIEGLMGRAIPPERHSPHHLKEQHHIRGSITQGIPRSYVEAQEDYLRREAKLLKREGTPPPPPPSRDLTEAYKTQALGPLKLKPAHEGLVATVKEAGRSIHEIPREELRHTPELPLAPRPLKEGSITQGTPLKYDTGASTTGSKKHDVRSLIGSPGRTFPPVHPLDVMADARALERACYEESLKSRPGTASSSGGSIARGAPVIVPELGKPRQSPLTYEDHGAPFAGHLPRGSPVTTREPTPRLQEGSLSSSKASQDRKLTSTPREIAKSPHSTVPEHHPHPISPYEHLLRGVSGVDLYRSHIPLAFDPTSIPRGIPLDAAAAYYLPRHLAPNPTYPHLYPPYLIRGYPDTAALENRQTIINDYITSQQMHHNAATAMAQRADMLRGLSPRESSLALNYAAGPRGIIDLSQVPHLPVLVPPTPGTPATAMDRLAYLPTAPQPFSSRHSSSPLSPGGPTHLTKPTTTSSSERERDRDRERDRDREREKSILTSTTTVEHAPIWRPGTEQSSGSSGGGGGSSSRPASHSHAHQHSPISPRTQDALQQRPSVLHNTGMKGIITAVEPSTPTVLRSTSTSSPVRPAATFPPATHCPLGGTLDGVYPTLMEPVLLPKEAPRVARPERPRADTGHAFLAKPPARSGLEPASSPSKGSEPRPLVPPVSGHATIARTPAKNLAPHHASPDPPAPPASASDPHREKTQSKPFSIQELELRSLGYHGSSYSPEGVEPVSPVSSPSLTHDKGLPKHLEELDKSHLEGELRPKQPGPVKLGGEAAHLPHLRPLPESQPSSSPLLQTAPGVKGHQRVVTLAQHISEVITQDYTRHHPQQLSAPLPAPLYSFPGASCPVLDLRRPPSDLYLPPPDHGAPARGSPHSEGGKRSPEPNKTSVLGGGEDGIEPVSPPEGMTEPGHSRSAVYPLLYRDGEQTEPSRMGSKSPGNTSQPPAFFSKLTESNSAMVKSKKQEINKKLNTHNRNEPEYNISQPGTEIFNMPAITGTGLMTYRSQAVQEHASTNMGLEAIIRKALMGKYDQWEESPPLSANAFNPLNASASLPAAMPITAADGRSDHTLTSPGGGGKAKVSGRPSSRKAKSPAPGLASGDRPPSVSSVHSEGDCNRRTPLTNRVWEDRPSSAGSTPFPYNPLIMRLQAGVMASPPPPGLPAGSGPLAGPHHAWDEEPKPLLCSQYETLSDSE
Chain of Histone deacetylase 9 (Q9UKV0 whole entry, the tested form may be a part): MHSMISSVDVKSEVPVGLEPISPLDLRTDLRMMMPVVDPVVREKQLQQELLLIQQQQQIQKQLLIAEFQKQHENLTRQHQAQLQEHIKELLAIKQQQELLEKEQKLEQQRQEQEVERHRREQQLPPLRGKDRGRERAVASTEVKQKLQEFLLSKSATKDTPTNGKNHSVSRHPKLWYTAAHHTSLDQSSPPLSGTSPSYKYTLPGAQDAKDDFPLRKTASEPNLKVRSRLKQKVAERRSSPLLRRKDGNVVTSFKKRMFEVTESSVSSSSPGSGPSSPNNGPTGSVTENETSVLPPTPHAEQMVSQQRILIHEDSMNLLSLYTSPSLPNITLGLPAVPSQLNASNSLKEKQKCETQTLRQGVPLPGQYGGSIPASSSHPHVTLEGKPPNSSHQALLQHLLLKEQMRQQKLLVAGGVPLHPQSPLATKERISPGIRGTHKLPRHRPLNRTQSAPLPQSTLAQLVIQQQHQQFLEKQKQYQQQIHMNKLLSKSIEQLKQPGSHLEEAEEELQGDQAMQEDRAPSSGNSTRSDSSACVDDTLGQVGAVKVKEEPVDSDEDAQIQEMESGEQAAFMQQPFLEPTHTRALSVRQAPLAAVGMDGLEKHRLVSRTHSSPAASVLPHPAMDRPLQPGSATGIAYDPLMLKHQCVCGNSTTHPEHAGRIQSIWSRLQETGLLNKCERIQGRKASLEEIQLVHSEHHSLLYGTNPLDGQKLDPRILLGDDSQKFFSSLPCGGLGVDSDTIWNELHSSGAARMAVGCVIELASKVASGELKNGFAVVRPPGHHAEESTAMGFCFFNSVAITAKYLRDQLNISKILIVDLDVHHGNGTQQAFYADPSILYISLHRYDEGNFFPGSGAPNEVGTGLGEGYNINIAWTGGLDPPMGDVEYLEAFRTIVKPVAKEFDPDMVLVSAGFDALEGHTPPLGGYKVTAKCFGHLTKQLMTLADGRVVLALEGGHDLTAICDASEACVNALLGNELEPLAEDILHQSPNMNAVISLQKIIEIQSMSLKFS

On to `Nc1cc(F)ccc1NC(=O)c1ccc(CNC(=O)/C=C/c2cccnc2)cc1` [TUCIDINOSTAT], for which the figures for the pIC50 in assay [1] and in [2] were 7.00 and 6.40, respectively.

As for `Nc1ccc(-c2cccs2)cc1NC(=O)c1ccc2nc(N3CCNCC3)ccc2c1`, the pIC50 in assay [3] was under 4.70; in assay [4] it was under 4.70; in assay [5], 7.59; in assay [6], under 4.70; in assay [7] it was under 4.70; in assay [8], under 4.70. The pIC50 in assay [9] was 6.00; in assay [10] it was under 4.70.

The compound `NCCCNCCCCCC(=O)NO` showed a pIC50 in assay [11] of 6.92.

For orientation: pIC50 means the IC50 on a negative log10 scale, so that one unit is a factor of ten.

These data come from ChEMBL document CHEMBL4765362, “Thirty Years of HDAC Inhibitors: 2020 Insight and Hindsight” (J Med Chem, 2020).
